Experimental data from patent EP0975351B1, “TREATMENT OF MULTIPLE SCLEROSIS THROUGH INGESTION OF COPOLYMER-1” (YEDA RESEARCH AND DEVELOPMENT CO. LTD., priority 1997, dated 1998).

Key:
[1] = tested on: MBP-specific T suppressor Inducer factor; assay: Assay for MBP-specific T suppressor inducer factor in plasma (3C9 antibody); type: in vivo, Rhesus Monkeys; settings: for MBP-specific T suppressor Inducer factor: plasma 1:20 dilution; for anti-Tsfi (3C9 Ab): plasma material bound to MBP (2.5µg)
Excerpt: The analysis, for MBP-specific Tsfi in the plasma of the three monkeys in this Example are seen in Tables 5 and 6 below. None of the animals produced MBP-specific Tsfi until day +13 following EAE induction with MBP. […] Glatiramer acetate fed animals 18497 and 18498 consistently produced significant levels of Tsfi from day +13 until day +41 shortly before termination.
Recombinant human TGF-beta reacted with the anti-TGF-beta, but not 3C9 antibody. Table 5: Assay for MBP-specific T suppressor Inducer factora

EAE [2] = assay: Suppression of EAE in rats by oral administration; type: in vivo, Lewis rats
Protocol: Rats were immunized with 25 µg of GPBP emulsified 1:1 in CFA containing 4 mg/ml. H37Ra. The emulsion at a total volume of 0.1 ml. was injected into the two hindfoot pads.
(§1) Animals were examined daily from day 10 post induction for signs of disease. EAE was scored as follows: 0-no disease, 1-limp tail, 2-hind limb paralysis, 3-paralysis of all four limbs, 4-moribund condition, 5-death.
Rats were fed with 1 mg GPBP or glatiramer acetate dissolved in PBS by gastric intubation using a sterile feeding tube (Uno Plast, Denmark). Rats were fed 5 times (total dose of 5 mg) before disease induction at intervals of 2-3 days. EAE was induced two days after the last feeding. Control mice and rats were mock fed with PBS.

EAE [3] = assay: Suppression of MSCH-induced EAE in mice by oral administration, dose response; type: in vivo, (SJL/JxBALB/c)F1 mice; settings: days -7 to 6 (Figure 5)
Protocol: as §1
Induction of EAE - (SJL/xBALB/c)F1 mice were injected in all four footpads with 2mg mouse spinal cord homogenated (MSCH) emulsified in 1:1 ratio in CFA containing 1 mg/ml H37Ra (Difco Lab, Detroit, Mich). Pertussis toxin (250 ng/mouse, Sigma) was twice injected intravenously, once immediately after and again 48 hours later.
(SJL/JxBALB/c)F1 mice were fed 7 times with 0.1, 0.25 or 0.5 mg glatiramer acetate on days -7; -5; -3; 0; 2; 4 and 6 by gastric intubation. EAE was induced on day 0 by the injection of MSCH.

spleen cells = assay: Proliferation assay of spleen cells in response to GPBP, fed mice; type: cell-based; settings: spleen cells of orally fed mice, 10-11 days after EAE induction (Figure 2)
Protocol: Induction and Assessment of EAE - Mice were injected with 200 µg GPBP emulsified in an equal volume of complete Freund's adjuvant (CFA) containing 4 mg/ml mycobacterium tuberculosis (H37Ra) (Difco Lab, Detroit, Mich.). The emulsion at a total volume of 0.1 ml was injected into all four footpads. Immediately after and 24 hours later, pertussis toxin (250ng/mouse) (Sigma) was injected intravenously.
Induction of Oral Tolerance - Mice were fed with 250 µg GPBP or glatiramer acetate dissolved in phosphate buffered saline (PBS) on days -7, -5, -3, 0, 2, 4 and 6 by gastric intubation with an 18-gauge stainless steel feeding needle (Thomas). EAE was induced on day 0.
Proliferation Assay - The proliferation response of spleen cells was tested 10-11 days after EAE induction as described above. Cells from 3 animals in each group were pooled and cultured in triplicate (5x10^5 mouse cells and 2x10^5 rat cells) in microtiter plates with various antigen concentrations (GPBP) in a final volume of 0.2ml. Microtiter plates contained RPMI 1640 (available from Sigma Biochemicals, St. Louis, Missouri) culture medium supplemented with 1% autologous serum. After 72 hr. of incubation, cells were pulsed with 1 µCi {^3H}-thymidine for 18 hr and then harvested onto filter papers and radioactivity was counted.

EAE [4] = assay: Induction of EAE in Rhesus monkeys, oral enteric-coated capsules, clinical scoring (Example 3); type: in vivo
Protocol: Glatiramer acetate was provided by Teva Pharmaceutical Industries Ltd. in an enteric-coated hard gelatin capsule comprising two dosage levels: 1 mg of glatiramer acetate and 20 mg of glatiramer acetate. Each dosage level was formulated using mannitol, and coated with Eudragit L30D55. Placebo or control capsules comprised capsules containing 5 mg of sugar.
3 Rhesus monkeys were treated as follows: One monkey served as control and was fed with placebo capsules (containing 5mg glucose only). The second and third monkeys were fed with glatiramer acetate containing capsules at a dose of 1mg/feeding and 20mg/feeding, respectively. Animals were fed every other day for a total of 10 feedings: 5 times prior to disease induction (immunization on day 0) and then 5 times after immunization.
Disease was induced on day 0 by an intradermal injection of 8mg bovine - MBP and 3 mg H37Ra M. tuberculosis in FCA into the hind footpads, total injected volume between 0.1 and 0.15 ml per footpad. The animals were followed for clinical manifestations of EAE, a variety of serum and CSF immunological markers and spinal cord and cranial MRI's.

[5] = animal 18497, 1mg/feeding then 20mg capsules after day 33, day +41
[6] = animal 18497, 1mg/feeding, day +6
[7] = animal 18497, 1mg/feeding, day +13
[8] = animal 18497, 1mg/feeding, day +27
[9] = animal 18498, 20mg/feeding, day +6
[10] = animal 18498, 20mg/feeding, day +13
[11] = animal 18498, 20mg/feeding, day +27
[12] = animal 18498, 20mg/feeding, day +41

glatiramer acetate
MBP-specific T suppressor Inducer factor ([1]; animal 18497, 1mg/feeding then 20mg capsules after day 33, day +34): .66 OD at 405nm | MBP-specific T suppressor Inducer factor [1, 5]: .76 OD at 405nm | MBP-specific T suppressor Inducer factor [1, 6]: none | MBP-specific T suppressor Inducer factor [1, 7]: .60 OD at 405nm | MBP-specific T suppressor Inducer factor ([1]; animal 18497, 1mg/feeding, day +20): .61 OD at 405nm | MBP-specific T suppressor Inducer factor [1, 8]: .56 OD at 405nm | MBP-specific T suppressor Inducer factor ([1]; animal 18497, 1mg/feeding, day -1): none | MBP-specific T suppressor Inducer factor ([1]; animal 18497, 1mg/feeding, day -13): none | MBP-specific T suppressor Inducer factor [1, 9]: none | MBP-specific T suppressor Inducer factor [1, 10]: .32 OD at 405nm | MBP-specific T suppressor Inducer factor ([1]; animal 18498, 20mg/feeding, day +20): .32 OD at 405nm | MBP-specific T suppressor Inducer factor [1, 11]: .42 OD at 405nm | MBP-specific T suppressor Inducer factor ([1]; animal 18498, 20mg/feeding, day +34): .40 OD at 405nm | MBP-specific T suppressor Inducer factor [1, 12]: .40 OD at 405nm | MBP-specific T suppressor Inducer factor ([1]; animal 18498, 20mg/feeding, day -1): none | MBP-specific T suppressor Inducer factor ([1]; animal 18498, 20mg/feeding, day -13): none | anti-Tsfi (3C9 Ab) [1, 5]: 0.76 OD405 nm | anti-Tsfi (3C9 Ab) [1, 6]: none | anti-Tsfi (3C9 Ab) [1, 7]: 0.60 OD405 nm | anti-Tsfi (3C9 Ab) [1, 8]: 0.56 OD405 nm | anti-Tsfi (3C9 Ab) [1, 9]: none | anti-Tsfi (3C9 Ab) [1, 10]: 0.32 OD405 nm | anti-Tsfi (3C9 Ab) [1, 11]: 0.42 OD405 nm | anti-Tsfi (3C9 Ab) [1, 12]: 0.40 OD405 nm | Mean Onset (EAE [2]; Lewis rats fed 1 mg 5 times before EAE induction, PBS control 11.9): 12.6 days | Mean Maximal Score±SD (EAE [2]; Lewis rats fed 1 mg 5 times before EAE induction, score 0-5, PBS control 1.8±0.5): 0.78±0.45 | inhibition of incidence of EAE (EAE [2]; compared to PBS fed rats): 54% | inhibition of severity of EAE (EAE [2]; compared to PBS fed rats): 57% | suppression of EAE (EAE [3]; mice fed 7 times 0.1 mg): most effective dose | suppression of EAE (EAE [3]; mice fed 7 times 0.25 mg): less effective | suppression of EAE (EAE [3]; mice fed 7 times 0.5 mg): completely inactive | proliferative responses to GPBP (spleen cells): almost complete inhibition | day of first (minimal) symptoms (EAE [4]; animal 18497, 1mg/feeding, 10 feedings): 25 days | time until clinical signs dropped to zero (EAE [4]; animal 18497, after day 33 fed 20mg capsules 5 times on alternate days, remained zero until day 60): ≤ 3 days | clinical symptoms (EAE [4]; animal 18498, 20mg/feeding, 10 feedings, 60 day observation period, placebo animal score 4+ , sacrificed day 28): did not show any significant clinical symptoms
